The source of these data is ChEMBL document CHEMBL2169878 (J Med Chem, 2012).

Broadly, the pIC50 is the IC50 on a negative log10 scale, so that one unit is a factor of ten. One may read the inhibition as the percentage by which the read-out fell short of the control.

pIC50: −log10 of the molar value. Calls of active or inactive are those of the source. The calls are words filed in the database; no cut-off is given here.

Data set [1] relates to Salmonella typhimurium. Put plainly: Mutagenicity against Salmonella typhimurium TA100 assessed as revertants at 61 uM incubated for 90 mins followed by drug washout measured after 2 days relative to positive control. The class given is toxicity, organism-based. The conditions noted are these: salmonella enterica subsp. enterica serovar typhimurium.
A short description of data set [2]: Cytotoxicity against mouse NIH3T3 cells after 24 hrs by neutral red dye uptake assay. The class given is cell-based. Particulars: read-out: TC50.
For data set [3], the system named is Salmonella typhimurium. Put plainly: Mutagenicity against Salmonella typhimurium TA98 assessed as revertants at 24 uM incubated for 90 mins followed by drug washout measured after 2 days relative to positive control. The class given is toxicity, organism-based. The conditions noted are these: salmonella enterica subsp. enterica serovar typhimurium, 1.5 h.
For data set [4], the system named is Salmonella typhimurium. Put plainly: Mutagenicity against Salmonella typhimurium TA100 assessed as revertants at 24 uM incubated for 90 mins followed by drug washout measured after 2 days relative to positive control. Particulars: salmonella enterica subsp. enterica serovar typhimurium. The class given is toxicity, organism-based.
Data set [5] relates to Salmonella typhimurium. Briefly: Mutagenicity against Salmonella typhimurium TA98 assessed as revertants at 80 uM incubated for 90 mins followed by drug washout measured after 2 days relative to positive control. The class given is toxicity, organism-based. Particulars: salmonella enterica subsp. enterica serovar typhimurium, 1.5 h.
Data set [6] in a line: Cytotoxicity against human HepG2 cells after 24 hrs by neutral red dye uptake assay. The class given is cell-based. The conditions noted are these: read-out: TC50.
Data set [7] relates to Salmonella typhimurium. Briefly: Mutagenicity against Salmonella typhimurium TA100 assessed as revertants at 7 uM incubated for 90 mins followed by drug washout measured after 2 days relative to positive control. The class given is toxicity, organism-based. Particulars: salmonella enterica subsp. enterica serovar typhimurium, 1.5 h.
The subject of data set [8] is Salmonella typhimurium. Briefly: Mutagenicity against Salmonella typhimurium TA100 assessed as revertants at 15 uM incubated for 90 mins followed by drug washout measured after 2 days relative to positive control. The conditions noted are these: salmonella enterica subsp. enterica serovar typhimurium. The class given is toxicity, organism-based.
For data set [9], the system named is Plasmodium falciparum. Put plainly: Antiplasmodial activity against chloroquine-sensitive Plasmodium falciparum D10 infected in human RBC after 72 hrs by parasite lactate dehydrogenase assay. The class given is functional, organism-based. Particulars: D10, 72 h.
The subject of data set [10] is Plasmodium falciparum. Briefly: Antiplasmodial activity against chloroquine-sensitive Plasmodium falciparum NF54 infected in human erythrocytes assessed as inhibition of [3H]hypoxanthine incorporation incubated for 48 hrs prior to [3H]hypoxanthine addition measured after 48 hrs by liquid scintillation counting. The class given is functional, organism-based.
Data set [11] relates to Plasmodium berghei. Put plainly: Antimalarial activity against Plasmodium berghei ANKA expressing GFP infected in mouse assessed as reduction in parasitemia at 100 mg/kg, po administered 24 hrs post-infection measured 48 hrs post-dosing by flow cytometric analysis. The class given is functional. Set-up: scale not given: the % may be the effect or the level left. For orientation: In flow cytometry, cells or beads pass a laser one at a time.

For data set [12], the system named is Salmonella typhimurium. Put plainly: Mutagenicity against Salmonella typhimurium TA98 assessed as revertants at 7 uM incubated for 90 mins followed by drug washout measured after 2 days relative to positive control. The class given is toxicity, organism-based. The conditions noted are these: salmonella enterica subsp. enterica serovar typhimurium.
For data set [13], the system named is Salmonella typhimurium. Put plainly: Mutagenicity against Salmonella typhimurium TA98 assessed as revertants at 40 uM incubated for 90 mins followed by drug washout measured after 2 days relative to positive control. The class given is toxicity, organism-based. Particulars: salmonella enterica subsp. enterica serovar typhimurium.
Data set [14] has as its system Salmonella typhimurium. Put plainly: Mutagenicity against Salmonella typhimurium TA100 assessed as revertants at 80 uM incubated for 90 mins followed by drug washout measured after 2 days relative to positive control. The class given is toxicity, organism-based. Particulars: salmonella enterica subsp. enterica serovar typhimurium.
The test system of data set [15] is Plasmodium berghei. Briefly: Antimalarial activity against Plasmodium berghei ANKA expressing GFP infected in mouse assessed as cure from infection at 100 mg/kg, po administered 24 hrs post-infection measured on day 30. The class given is functional, organism-based. More on the design: dose 100 mg/kg.
In data set [16] the test system is Salmonella typhimurium. Briefly: Mutagenicity against Salmonella typhimurium TA100 assessed as revertants at 40 uM incubated for 90 mins followed by drug washout measured after 2 days relative to positive control. The class given is toxicity, organism-based. Particulars: salmonella enterica subsp. enterica serovar typhimurium.
For data set [17], the system named is Salmonella typhimurium. Put plainly: Mutagenicity against Salmonella typhimurium TA98 assessed as revertants at 61 uM incubated for 90 mins followed by drug washout measured after 2 days relative to positive control. The class given is toxicity, organism-based. Particulars: salmonella enterica subsp. enterica serovar typhimurium, 1.5 h.
For data set [18], the system named is Plasmodium berghei. Put plainly: Antimalarial activity against Plasmodium berghei ANKA expressing GFP infected in mouse assessed as cure from infection at 30 mg/kg, po administered 24 hrs post-infection measured on day 30. The class given is functional, organism-based. Set-up: dose 30 mg/kg.
For data set [19], the system named is Plasmodium falciparum. Briefly: Antiplasmodial activity against chloroquine-resistant Plasmodium falciparum K1 infected in human erythrocytes assessed as inhibition of [3H]hypoxanthine incorporation incubated for 48 hrs prior to [3H]hypoxanthine addition measured after 48 hrs by liquid scintillation counting. The class given is functional, organism-based.
Data set [20] concerns Plasmodium falciparum. Briefly: Antiplasmodial activity against chloroquine-resistant Plasmodium falciparum W2 infected in human RBC after 72 hrs by parasite lactate dehydrogenase assay. The class given is functional, organism-based. The conditions noted are these: W2, 72 h.
The target in data set [21] is T1, Chloroquine resistance transporter (Plasmodium falciparum) (UniProt Q9N623).
T1 sequence (whole entry): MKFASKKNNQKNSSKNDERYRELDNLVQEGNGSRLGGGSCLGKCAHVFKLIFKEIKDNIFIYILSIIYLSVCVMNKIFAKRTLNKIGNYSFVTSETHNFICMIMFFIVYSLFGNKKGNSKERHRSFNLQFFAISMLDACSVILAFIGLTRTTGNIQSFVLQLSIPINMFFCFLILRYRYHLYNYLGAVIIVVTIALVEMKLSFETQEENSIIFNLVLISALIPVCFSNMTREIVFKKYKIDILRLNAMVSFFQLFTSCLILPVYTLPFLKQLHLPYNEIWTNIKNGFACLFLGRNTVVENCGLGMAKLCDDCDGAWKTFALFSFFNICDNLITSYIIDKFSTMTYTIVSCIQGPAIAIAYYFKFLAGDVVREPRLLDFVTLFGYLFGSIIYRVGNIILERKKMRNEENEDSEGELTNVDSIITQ
Briefly: Inhibition of chloroquine-resistant Plasmodium falciparum Dd2 CRT expressed in Xenopus laevis oocyte assessed as inhibition of [3H]chloroquine uptake at 100 uM measured from 1 to 2 hrs.

Data set [22] concerns Plasmodium berghei. Put plainly: Antimalarial activity against Plasmodium berghei ANKA expressing GFP infected in mouse assessed as reduction in parasitemia at 30 mg/kg, po administered 24 hrs post-infection measured 48 hrs post-dosing by flow cytometric analysis. More on the design: scale not given: the % may be the effect or the level left. The class given is functional.

The test system of data set [23] is Plasmodium berghei. Put plainly: Antimalarial activity against Plasmodium berghei ANKA expressing GFP infected in mouse assessed as mean survival days at 100 mg/kg, po administered 24 hrs post-infection (reference value: 6 to 7 days). The class given is functional.
Data set [24] relates to Plasmodium berghei. Briefly: Antimalarial activity against Plasmodium berghei ANKA expressing GFP infected in mouse assessed as mean survival days at 30 mg/kg, po administered 24 hrs post-infection (reference value: 6 to 7 days). The class given is functional.
Data set [25] concerns Salmonella typhimurium. Briefly: Mutagenicity against Salmonella typhimurium TA98 assessed as revertants at 15 uM incubated for 90 mins followed by drug washout measured after 2 days relative to positive control. The class given is toxicity, organism-based. Particulars: salmonella enterica subsp. enterica serovar typhimurium.
For data set [26], the system named is Salmonella typhimurium. Briefly: Mutagenicity against Salmonella typhimurium TA100 assessed as revertants at 1.5 uM incubated for 90 mins followed by drug washout measured after 2 days relative to positive control. The class given is toxicity, organism-based. Particulars: salmonella enterica subsp. enterica serovar typhimurium, 1.5 h.
The test system of data set [27] is Salmonella typhimurium. Briefly: Mutagenicity against Salmonella typhimurium TA98 assessed as revertants at 6 uM incubated for 90 mins followed by drug washout measured after 2 days relative to positive control. The class given is toxicity, organism-based. Particulars: salmonella enterica subsp. enterica serovar typhimurium, 1.5 h.
For data set [28], the system named is Salmonella typhimurium. Put plainly: Mutagenicity against Salmonella typhimurium TA100 assessed as revertants at 48 uM incubated for 90 mins followed by drug washout measured after 2 days relative to positive control. The class given is toxicity, organism-based. The conditions noted are these: salmonella enterica subsp. enterica serovar typhimurium.
The test system of data set [29] is Salmonella typhimurium. Briefly: Mutagenicity against Salmonella typhimurium TA98 assessed as revertants at 48 uM incubated for 90 mins followed by drug washout measured after 2 days relative to positive control. The class given is toxicity, organism-based. The conditions noted are these: salmonella enterica subsp. enterica serovar typhimurium, 1.5 h.
Data set [30] concerns Salmonella typhimurium. Put plainly: Mutagenicity against Salmonella typhimurium TA98 assessed as revertants at 3 uM incubated for 90 mins followed by drug washout measured after 2 days relative to positive control. The class given is toxicity, organism-based. Particulars: salmonella enterica subsp. enterica serovar typhimurium, 1.5 h.
Data set [31] has as its system Salmonella typhimurium. Briefly: Mutagenicity against Salmonella typhimurium TA98 assessed as revertants at 1.5 uM incubated for 90 mins followed by drug washout measured after 2 days relative to positive control. The class given is toxicity, organism-based. The conditions noted are these: salmonella enterica subsp. enterica serovar typhimurium, 1.5 h.
Data set [32] concerns Salmonella typhimurium. Briefly: Mutagenicity against Salmonella typhimurium TA100 assessed as revertants at 6 uM incubated for 90 mins followed by drug washout measured after 2 days relative to positive control. The class given is toxicity, organism-based. Particulars: salmonella enterica subsp. enterica serovar typhimurium, 1.5 h.
For data set [33], the system named is Salmonella typhimurium. Briefly: Mutagenicity against Salmonella typhimurium TA100 assessed as revertants at 12 uM incubated for 90 mins followed by drug washout measured after 2 days relative to positive control. The class given is toxicity, organism-based. The conditions noted are these: salmonella enterica subsp. enterica serovar typhimurium.
For data set [34], the system named is Salmonella typhimurium. Put plainly: Mutagenicity against Salmonella typhimurium TA100 assessed as revertants at 3 uM incubated for 90 mins followed by drug washout measured after 2 days relative to positive control. The class given is toxicity, organism-based. The conditions noted are these: salmonella enterica subsp. enterica serovar typhimurium, 1.5 h.
In data set [35] the test system is Salmonella typhimurium. Briefly: Mutagenicity against Salmonella typhimurium TA98 assessed as revertants at 12 uM incubated for 90 mins followed by drug washout measured after 2 days relative to positive control. The class given is toxicity, organism-based. The conditions noted are these: salmonella enterica subsp. enterica serovar typhimurium.

On to `Clc1ccc2c(NC(c3ccccc3)(c3ccc(CN4CCCC4)c(Cl)c3)c3ccc(CN4CCCC4)c(Cl)c3)ccnc2c1`, for which the Activity in [1] was determined as 4%; in data set [3] it was 5%; in [4], 6%; in data set [5], 0%; in data set [7], 4%; in [8] it was 5%. Moreover, the Activity in data set [11] is reported as 99.3%; in [12], 1%; in data set [13], 3%; in data set [14] it was 0%; in [16] it was 4%; in data set [17], 5%. Besides, the Activity in data set [22] came out at 99.4%; in [25] it was 1%. The CC50 at 24 h in data set [2] came out at 15000 nM; in data set [6] it was 6100 nM. Further, the pIC50 was 7.59 in [9], 8.02 in data set [10], 8.08 in data set [19] and 7.28 in [20]. The outcome in data set [15] and in data set [18] was inactive. The inhibition in [21] was 72%. The MSD in data set [23] stood at 21.3 days; in [24] it was 7 days.
For the compound `COc1ccc2nccc(NC(c3cccc(Cl)c3)c3ccc(CN4CCCC4)c(Cl)c3)c2c1` (racemic), the Activity in data set [26] is listed as 3%; in data set [27], 0%; in [3], 3%; in data set [4] it was 5%; in data set [28], 10%; in data set [29], 3%. Moreover, the Activity in data set [30] came out at 0%; in data set [31], 3%; in data set [32] it was 4%; in [33], 4%; in data set [34], 4%; in data set [35] it was 3%. Moreover, the CC50 at 24 h in data set [2] worked out at 24000 nM; in data set [6] it was 12000 nM. Moreover, the pIC50 in [9] was 7.25; in data set [10], 7.57; in data set [19], 7.47; in data set [20], 7.05.
